Assay type in all cases: functional, cell-based
One test relates to HSC-2. Nature of the test: Cytotoxicity against human HSC2 cells after 24 hrs by MTT assay. Particulars: HSC-2, 24 h.
The test system of the next test is A-375. Nature of the test: Cytotoxicity against human A375 cells after 24 hrs by MTT assay. As to conditions: A-375, 24 h. In general terms: Formazan colour is commonly taken as a measure of viable cells.
A further test deals with HepG2. Nature of the test: Cytotoxicity against human HepG2 cells after 24 hrs by MTT assay. Particulars: HepG2, 24 h.
Test [1] in a line: Cytotoxicity against human HPC cells after 24 hrs by MTT assay.

In brackets after ≈: the same amount, converted by molar mass.

For orientation: IC50 means the midpoint of a concentration-inhibition curve. Higher therefore signals weaker potency.

As to `C[C@]12CC[C@H]3[C@@H](CC[C@]4(O)C[C@@H](O[C@@H]5O[C@H](CO)[C@@H](O)[C@H](O)[C@H]5O)CC[C@]34C=O)[C@@]1(O)CC[C@@H]2c1ccc(=O)oc1`, the IC50 in the test on HSC-2 was 0.0029 µg/mL (≈ 0.00501 µM); in the test on A-375, 0.0086 µg/mL (≈ 0.0149 µM); in the test with HepG2, 0.23 µg/mL (≈ 0.397 µM); in test [1], 0.082 µg/mL (≈ 0.142 µM).
Take `C=C1CO[C@@]2(O[C@H]3C[C@H]4[C@@H]5CC=C6C[C@@H](O)C[C@@H](O[C@@H]7OC[C@H](O)[C@H](O[C@@H]8OC[C@@H](O)[C@H](O)[C@H]8O)[C@H]7O[C@@H]7O[C@@H](C)[C@H](OC(C)=O)[C@@H](O[C@@H]8OC[C@](O)(CO)[C@H]8O)[C@H]7O)[C@]6(C)[C@H]5CC[C@]4(C)[C@H]3[C@@H]2C)[C@@H](O)[C@H]1O`: the IC50 with HSC-2 came out at 86 µg/mL (≈ 82.3 µM).
With `C=C1CO[C@@]2(O[C@H]3C[C@H]4[C@@H]5CC=C6C[C@@H](O)C[C@@H](O[C@@H]7OC[C@H](O)[C@H](O[C@@H]8OC[C@@H](O)[C@H](O)[C@H]8O)[C@H]7O[C@@H]7O[C@@H](C)[C@H](OC(C)=O)[C@@H](O[C@@H]8OC[C@](O)(CO)[C@H]8O)[C@H]7O)[C@]6(C)[C@H]5CC[C@]4(C)[C@H]3[C@@H]2COC(C)=O)[C@@H](O)[C@H]1O[C@@H]1O[C@H](CO)[C@@H](O)[C@H](O)[C@H]1O`, the IC50 with HSC-2 is more than 200 µg/mL.
As to `C[C@@H]1O[C@@H](O[C@H]2CC[C@]3(C=O)[C@H]4CC[C@]5(C)[C@@H](c6ccc(=O)oc6)[C@@H](O)C[C@]5(O)[C@@H]4CC[C@]3(O)C2)[C@H](O)[C@H](O)[C@H]1O`, the IC50 in the test on HSC-2 was found to be 0.0085 µg/mL (≈ 0.0147 µM); with A-375, 0.055 µg/mL (≈ 0.095 µM); in the test on HepG2, 0.74 µg/mL (≈ 1.28 µM); in test [1], 9.5 µg/mL (≈ 16.4 µM).
The corresponding values for `COc1cccc2c1C(=O)c1c(O)c3c(c(O)c1C2=O)C[C@@](O)(C(=O)CO)C[C@@H]3O[C@H]1C[C@H](N)[C@H](O)[C@H](C)O1` [DOXORUBICIN] are 2.5 µg/mL (≈ 4.6 µM), 1.8 µg/mL (≈ 3.31 µM), more than 40 µg/mL and more than 40 µg/mL.
`C=C1CO[C@@]2(O[C@H]3C[C@H]4[C@@H]5CC=C6C[C@@H](O)C[C@@H](O[C@@H]7OC[C@H](O)[C@H](O[C@@H]8OC[C@@H](O)[C@H](O)[C@H]8O)[C@H]7O[C@@H]7O[C@@H](C)[C@H](OC(C)=O)[C@@H](O[C@@H]8OC[C@](O)(CO)[C@H]8O)[C@H]7O)[C@]6(C)[C@H]5CC[C@]4(C)[C@H]3[C@@H]2C)[C@@H](O)C1`: in the test on HSC-2, half-maximal inhibition (IC50) required 27 µg/mL (≈ 26.2 µM).
On the same count and under the same terms, next, `C=C1CO[C@@]2(O[C@H]3C[C@H]4[C@@H]5CC=C6C[C@@H](O)C[C@@H](O[C@@H]7OC[C@H](O)[C@H](O[C@@H]8OC[C@@H](O)[C@H](O)[C@H]8O)[C@H]7O[C@@H]7O[C@@H](C)[C@H](OC(C)=O)[C@@H](O[C@@H]8OC[C@](O)(CO)[C@H]8O)[C@H]7O)[C@]6(C)[C@H]5CC[C@]4(C)[C@H]3[C@@H]2COC(C)=O)[C@@H](O)[C@H]1O`: 184 µg/mL (≈ 167 µM).
As for `C[C@@H]1O[C@@H](O[C@H]2CC[C@]3(C=O)[C@H]4CC[C@]5(C)[C@@H](c6ccc(=O)oc6)CC[C@]5(O)[C@@H]4CC[C@]3(O)C2)[C@H](O)[C@H](O)[C@H]1O`, the IC50 in the test with HSC-2 was found to be 0.0028 µg/mL (≈ 0.00498 µM); in the test on A-375 it was 0.0063 µg/mL (≈ 0.0112 µM); with HepG2, 0.25 µg/mL (≈ 0.444 µM); in test [1], 6.7 µg/mL (≈ 11.9 µM).
Molecule `C=C1CO[C@@]2(O[C@H]3C[C@H]4[C@@H]5CC=C6C[C@@H](O)C[C@@H](O[C@@H]7OC[C@H](O)[C@H](O[C@@H]8OC[C@@H](O)[C@H](O)[C@H]8O)[C@H]7O[C@@H]7O[C@@H](C)[C@H](OC(C)=O)[C@@H](O[C@@H]8OC[C@](O)(CO)[C@H]8O)[C@H]7O)[C@]6(C)[C@H]5CC[C@]4(C)[C@H]3[C@@H]2COC(C)=O)[C@@H](O)[C@H]1O[C@@H]1O[C@H](C)[C@@H](O)[C@H](O)[C@H]1O` gave an IC50 with HSC-2 of more than 200 µg/mL.

Source of the values: ChEMBL document CHEMBL1148149, “Bufadienolide and spirostanol glycosides from the rhizomes of helleborusorientalis” (J Nat Prod, 2003).
